This is an account of results in patent US8227418B2 (priority 2004, dated 2012).

Data set [1] has as its system cleavage of MKK3b by LF in RAW 264.7 macrophages. Format: cell-based, murine.
Data set [2] has as its target LF (anthrax lethal factor) (Bacillus anthracis, UniProt P15917). Format: biochemical, B. anthracis.
The subject of data set [3] is ERK and p38 MAPK phosphorylation in RAW 264.7 cells. In kind it is cell-based, murine.
The subject of data set [4] is anthrax LeTx cytolysis of RAW 264.7 cells.
Data set [5] relates to LeTx intoxication. Further details: species or system Balb/c mice. Conditions: mouse, in vivo, iv.

For the substance HNP-1, the “Inhibition of MKK3b cleavage in LeTx treated cells” value in data set [1] is “efficiently inhibited”. The “Inhibition of in vitro MKK3b proteolysis by LF” value (“Inhibition … by LF” below) in data set [2] is “proteolysis was efficiently inhibited”. For the same substance, the “Restoration of ERK and p38 phosphorylation inhibited by LeTx” value in data set [3] is recorded as “phosphorylation of these two MAPKs was restored”. In data set [4], the “Prevention of LeTx toxicity by pre-treatment of macrophages” value is “prevented LeTx toxicity in a HNP-1 dose dependent manner”, the “Protection of RAW 264.7 cells 24 hrs after LeTx treatment” value is on record as “protection was observed even 24 hrs after LeTx treatment”, the “Protection of RAW 264.7 cells against cytotoxicity by LeTx (co-treatment)” value (from here on “Protection of RAW 264.7 cells … (co-treatment)”) is recorded as “completely abolished cytotoxicity” and the “Protection of RAW 264.7 cells from LeTx induced cytotoxicity under serum-supplemented conditions” value is given as “still protected cells from LeTx induced cytotoxicity”.

With “HNP-2 (CYCRIPACIAGERRYGTCIYQGRLWAFCC; homo sapiens)”, the “Protection of RAW 264.7 cells … (co-treatment)” value in data set [4] was “showed similar protection”.

Consider LL-37, for which, in data set [2], the “Inhibition … by LF” value is reported as “did not prevent cleavage of MKK3b”. Also, in data set [4], the “Protection of RAW 264.7 cells … (co-treatment)” value is recorded as “did not display any significant effect”. Further, the “Protection of mice from LeTx intoxication (survival)” value in data set [5] is “had no effect on LeTx toxicity”.

Regarding Magainin I, the “Inhibition … by LF” value in data set [2] was “did not prevent cleavage of MKK3b”.
